Data reported in ChEMBL document CHEMBL1151988, “Antineoplastic agents. 571. Total synthesis of bacillistatin 2” (2009).
Values after ≈ are worked out from the molar mass of the structure shown.

Columns and labels:
P388 = assay: Cytotoxicity against mouse P388 cells; type: functional; conditions: read-out: ED50 (the source's name)
DU-145 = assay: Cytotoxicity against human DU145 cells; type: functional

Compound | EC50 (P388) | GI50 (DU-145)
CC[C@H](C)[C@@H](OC(=O)[C@@H](NC(=O)[C@H](C)OCc1ccccc1)C(C)C)C(=O)N[C@@H](C(=O)O[C@@H](C)C(=O)N[C@H](C(=O)O[C@@H](C(=O)N[C@@H](C(=O)O[C@@H](C)C(=O)N[C@H](C(=O)O[C@H](CC(C)C)C(=O)N[C@@H](C(=O)OC(C)(C)C)C(C)C)C(C)C)C(C)C)[C@@H](C)CC)C(C)C)C(C)C | 2.1 µg/mL (≈ 1.59 µM) | 
CC[C@H](C)[C@@H](OC(=O)[C@@H](NC(=O)[C@H](C)O)C(C)C)C(=O)N[C@@H](C(=O)O[C@@H](C)C(=O)N[C@H](C(=O)O[C@@H](C(=O)N[C@@H](C(=O)O[C@@H](C)C(=O)N[C@H](C(=O)O[C@H](CC(C)C)C(=O)N[C@@H](C(=O)OC(C)(C)C)C(C)C)C(C)C)C(C)C)[C@@H](C)CC)C(C)C)C(C)C | 2 µg/mL (≈ 1.63 µM) | 
CC[C@H](C)[C@@H](OC(=O)[C@@H](NC(=O)[C@H](C)OC(=O)[C@H](NC(=O)[C@H](OC(=O)[C@@H](NC(=O)[C@@H](C)OCc1ccccc1)C(C)C)[C@@H](C)CC)C(C)C)C(C)C)C(=O)N[C@@H](C(=O)OC(C)(C)C)C(C)C |  | 10.5 µg/mL (≈ 11.3 µM)
